Results reported in article PMC12888861, “Antibacterial activity of enmetazobactam against Acinetobacter spp.: a molecular dissection of mechanism of action and resistance determinants” (Antimicrobial Agents and Chemotherapy, 2025).
≈ marks a conversion by molar mass, not a printed value. Where two headings read alike, the source gives them in different places.

Columns and labels:
[1] = system: Acinetobacter spp. clinical isolates; assay: MBC testing, nine clinical isolates; format: cell-based; settings: for MBC relative to MIC: nine clinical isolates, most of the isolates
Experimental: In order to determine the bactericidal activity of enmetazobactam, MBC testing was carried out by subculturing 100 μL aliquots from wells containing antimicrobial concentrations equal to or greater than the MIC of enmetazobactam onto Mueller-Hinton agar plates. […] The MBCs were evaluated for a total of nine clinical isolates: (i) three CRAB, (ii) three carbapenem-susceptible A. baumannii, and (iii) three A. non-baumannii isolates. The plates were incubated at 37°C for 24 h, and viable colonies were counted.

[2] = molecular target: T1, OXA-23 (Acinetobacter baumannii, UniProt Q9L4P2); assay: Jump-dilution dissociation assay (koff, t1/2) with OXA-23; format: biochemical; settings: jump dilution, accurate koff not determinable
T1 construct: GST (N); made in house; host or cells: Escherichia coli BL21
Experimental: The Michaelis-Menten constant (Km) was determined by fitting the data to the Michaelis-Menten equation, following established protocols ([38]). The kcat (hydrolysis rate constant of the β-lactamase) was obtained by linearization of the kinetic data ([39]). To assess the possible inhibitory capacity of enmetazobactam against the CHDLs of A. baumannii, specific OXA-23 inhibition kinetics assays were performed in a Nanoquant Infinite spectrophotometer (Tecan). […] Also, the dissociation constant (koff), which represents the rate at which the enzyme-inhibitor complex dissociates (i.e., the proportion of the enzyme-inhibitor complex that dissociates per unit of time), was determined through a jump-dilution assay that monitored OXA-23 activity recovery as the enzyme-inhibitor complex dissociated. OXA-23 (1 µM) was preincubated for 30 min at 37°C with excess of inhibitors (50× IC₅₀) to ensure full acyl-enzyme complex formation. Subsequently, the mixture was diluted 1:5,000 to allow gradual complex dissociation. […] Enzymatic activity, reflecting the progressive dissociation of the acyl-enzyme complex, was monitored spectrophotometrically at 490 nm for 8 h. The resulting progress curves were fitted using GraphPad Prism (GraphPad Software, MA, USA) to equation 1 to estimate koff, where V0 is the initial, inhibited enzyme velocity; Vs is the steady-state uninhibited enzyme velocity, and t is time.
(1) P=Vs×t+(V0−Vs)×[1−exp^(−koff × t)]/koff

[3] = system: carbapenem-resistant CHDL-producing A. baumannii isolates (OXA-23, OXA-24/40, OXA-58); assay: Checkerboard synergy assay (FIC index); format: cell-based, Acinetobacter baumannii; settings: Acinetobacter baumannii, alone or in presence of the partner
Experimental: Checkerboard assays were performed to assess synergistic interactions between the cefepime/enmetazobactam combination and sulbactam, as well as between enmetazobactam alone and either sulbactam or colistin. […] The assays were conducted with three multidrug-resistant A. baumannii isolates from the Spanish Multicenter Collection, each producing a different OXA-type carbapenemase: OXA-23, OXA-24/40, or OXA-58. The FIC index was calculated and interpreted as follows: FICindex ≤ 0.5, synergy; FICindex > 0.5–4, no synergy; and FICindex > 4, antagonism ([33], [34]).

[4] = molecular target: PBP1b (Acinetobacter baumannii, UniProt A0ABX6CHI7); assay: PBP-binding assay, Bocillin FL competition, membrane preparations; settings: A. baumannii ATCC 19606, read-out: IC50 (binding affinity) PBP1b (converted)
Experimental: (§1) The possible involvement of A. baumannii PBPs as enmetazobactam targets was evaluated. […] The PBP-binding IC50 was determined in membrane preparations from three independent experiments, following previously described protocols ([13]).
(§2) Briefly, A. baumannii cultures were grown in Mueller-Hinton broth at 37°C with shaking at 180 rpm, and 400 mL were collected in late log phase (OD₆₀₀nm= 1), washed, and resuspended in 20 mM KH₂PO₄ and 140 mM NaCl (pH 7.5). After sonication, bacterial membranes were isolated by ultracentrifugation (150,000 g, 30 min). […] The Bocillin FL signal is inversely proportional to the binding capacity of the compounds tested to PBPs ([35]). The PBPs were separated by SDS-PAGE (Bio-Rad) and visualized with Odyssey M Imager (LI-COR). The IC₅₀ values were calculated using Empiria Studio software (LI-COR). The binding affinity was determined by comparing the change of the fluorescence in the presence or absence of the tested sulfones.

[5] = molecular target: PBP1a (Acinetobacter baumannii, UniProt A0ABX6CK30); assay: as above; settings: A. baumannii ATCC 19606, read-out: IC50 (binding affinity) PBP1a
Experimental: as §1, §2

[6] = molecular target: T2, PBP2 (Acinetobacter baumannii, UniProt D0C8Z9); assay: as above
T2 construct: endogenous in cells; host or cells: A. baumannii ATCC 19606 membrane fraction
Experimental: as §1, §2

[7] = molecular target: PBP3 (Acinetobacter baumannii, UniProt A0ABX6CK25); assay: as above
Experimental: as §1, §2

[8] = Acinetobacter, isolate NO-Ab84, A. bereziniae
[9] = Acinetobacter, isolate NO-Ab88, A. dijkshoorniae
[10] = isolate Ab1, A. baumannii ST 164, ADC-6, OXA-91, non-CHDLs-producing
[11] = isolate Ab4, A. baumannii ST 2, ADC-30, OXA-66, ISAba1-OXA-23
[12] = isolate Ab6, A. baumannii ST 2, ADC-30, OXA-66, ISAba1-OXA-23, TEM-12
[13] = isolate Ab9, A. baumannii ST 2, ADC-30, OXA-66, OXA-23, TEM-12
[14] = isolate Ab11, A. baumannii ST 239, ADC-2, OXA-51, non-CHDLs-producing
[15] = isolate Ab34, A. baumannii ST 2182, ADC-2, OXA-130, non-CHDLs-producing
[16] = checkerboard sulbactam x enmetazobactam, isolate Ab4 (OXA-23)
[17] = checkerboard sulbactam x enmetazobactam, isolate Ab138 (OXA-58)
[18] = checkerboard sulbactam x enmetazobactam, isolate Ab180 (OXA-24/40)
[19] = A. baumannii ATCC 19606, read-out: IC50 (binding affinity) PBP3 (converted)

Sequence of PBP3 (A0ABX6CK25 entry or part of it): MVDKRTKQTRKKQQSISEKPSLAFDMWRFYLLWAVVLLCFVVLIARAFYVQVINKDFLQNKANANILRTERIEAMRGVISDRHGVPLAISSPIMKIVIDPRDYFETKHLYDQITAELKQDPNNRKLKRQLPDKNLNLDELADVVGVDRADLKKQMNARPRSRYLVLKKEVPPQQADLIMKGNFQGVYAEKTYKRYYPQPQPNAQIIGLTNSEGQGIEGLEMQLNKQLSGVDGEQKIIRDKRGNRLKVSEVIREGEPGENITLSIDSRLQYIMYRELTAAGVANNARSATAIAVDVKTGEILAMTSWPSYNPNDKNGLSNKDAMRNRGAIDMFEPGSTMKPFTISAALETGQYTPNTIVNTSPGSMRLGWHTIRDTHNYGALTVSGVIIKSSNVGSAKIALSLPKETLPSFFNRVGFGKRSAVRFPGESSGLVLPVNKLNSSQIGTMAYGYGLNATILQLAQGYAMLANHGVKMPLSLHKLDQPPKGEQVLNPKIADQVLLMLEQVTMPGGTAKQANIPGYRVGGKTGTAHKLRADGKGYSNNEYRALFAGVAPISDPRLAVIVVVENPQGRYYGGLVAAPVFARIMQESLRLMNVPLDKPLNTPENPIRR
T2 sequence (D0C8Z9 whole entry): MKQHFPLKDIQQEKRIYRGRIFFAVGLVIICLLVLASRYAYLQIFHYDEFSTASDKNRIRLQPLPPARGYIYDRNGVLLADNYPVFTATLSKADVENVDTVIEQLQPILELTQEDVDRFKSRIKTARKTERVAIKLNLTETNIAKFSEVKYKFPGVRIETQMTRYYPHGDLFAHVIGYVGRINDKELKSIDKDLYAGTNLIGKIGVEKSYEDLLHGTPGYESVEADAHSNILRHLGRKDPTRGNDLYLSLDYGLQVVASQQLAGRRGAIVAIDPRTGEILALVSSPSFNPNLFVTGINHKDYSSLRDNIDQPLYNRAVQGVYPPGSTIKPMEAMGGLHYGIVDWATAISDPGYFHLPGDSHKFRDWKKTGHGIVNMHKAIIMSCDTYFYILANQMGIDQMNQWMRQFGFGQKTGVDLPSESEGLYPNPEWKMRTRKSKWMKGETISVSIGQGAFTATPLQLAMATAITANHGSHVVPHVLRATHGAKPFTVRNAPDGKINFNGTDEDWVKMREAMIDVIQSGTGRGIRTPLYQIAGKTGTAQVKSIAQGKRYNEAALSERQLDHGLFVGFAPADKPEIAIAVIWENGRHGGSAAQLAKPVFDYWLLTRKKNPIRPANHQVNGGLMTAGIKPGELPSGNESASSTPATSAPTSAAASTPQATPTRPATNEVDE
Sequence of PBP1a (A0ABX6CK30 entry or part of it): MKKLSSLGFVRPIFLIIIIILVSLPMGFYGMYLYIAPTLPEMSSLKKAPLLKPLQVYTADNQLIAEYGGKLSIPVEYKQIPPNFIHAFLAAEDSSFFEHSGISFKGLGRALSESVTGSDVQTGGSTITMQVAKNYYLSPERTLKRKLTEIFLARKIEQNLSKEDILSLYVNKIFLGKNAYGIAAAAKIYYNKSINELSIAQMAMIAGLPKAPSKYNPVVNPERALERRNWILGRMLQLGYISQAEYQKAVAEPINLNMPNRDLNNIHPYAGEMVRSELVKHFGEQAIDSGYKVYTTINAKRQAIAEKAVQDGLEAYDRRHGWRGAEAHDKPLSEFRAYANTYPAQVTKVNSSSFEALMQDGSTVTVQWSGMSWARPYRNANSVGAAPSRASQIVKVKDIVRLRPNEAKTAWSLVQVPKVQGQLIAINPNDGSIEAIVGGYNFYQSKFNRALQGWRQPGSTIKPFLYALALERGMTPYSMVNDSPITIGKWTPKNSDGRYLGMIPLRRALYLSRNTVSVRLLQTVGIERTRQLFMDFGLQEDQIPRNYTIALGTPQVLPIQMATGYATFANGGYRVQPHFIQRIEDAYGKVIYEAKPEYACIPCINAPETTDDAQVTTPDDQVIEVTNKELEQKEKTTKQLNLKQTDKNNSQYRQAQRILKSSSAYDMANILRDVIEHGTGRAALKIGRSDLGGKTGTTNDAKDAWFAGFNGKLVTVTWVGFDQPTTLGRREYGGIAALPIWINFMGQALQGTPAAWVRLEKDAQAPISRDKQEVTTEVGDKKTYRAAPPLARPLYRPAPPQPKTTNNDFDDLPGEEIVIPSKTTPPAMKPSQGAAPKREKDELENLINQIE
T1 sequence (Q9L4P2 18-273): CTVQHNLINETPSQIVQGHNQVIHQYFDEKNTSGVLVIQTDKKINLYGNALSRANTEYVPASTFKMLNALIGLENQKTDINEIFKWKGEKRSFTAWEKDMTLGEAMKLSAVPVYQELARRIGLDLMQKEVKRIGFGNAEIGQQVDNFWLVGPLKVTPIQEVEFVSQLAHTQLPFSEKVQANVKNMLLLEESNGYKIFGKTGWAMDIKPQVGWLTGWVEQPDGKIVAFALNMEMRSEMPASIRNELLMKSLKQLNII

Row | Structure (SMILES) | MBC [1, 8] | MBC [1, 9] | MBC [1, 10] | MBC [1, 11] | MBC [1, 12] | MBC [1, 13] | MBC [1, 14] | MBC [1, 15] | MBC ([1]; isolate NO-Ab89, A. pittii) | MBC relative to MIC [1] | MIC [3, 16] | MIC [3, 17] | MIC [3, 18] | IC50 [4] | IC50 [5] | IC50 [7, 19] | other results
1 | C[n+]1ccn(C[C@@]2(C)[C@H](C(=O)[O-])N3C(=O)C[C@H]3S2(=O)=O)n1 [enmetazobactam] | 2 µg/mL (≈ 6.36 µM) | 2 µg/mL (≈ 6.36 µM) | 4 µg/mL (≈ 12.7 µM) | 64 µg/mL (≈ 204 µM) | 64 µg/mL (≈ 204 µM) | 8 µg/mL (≈ 25.5 µM) | 16 µg/mL (≈ 50.9 µM) | 8 µg/mL (≈ 25.5 µM) | 2 µg/mL (≈ 6.36 µM) | the same or up to twofold higher | 128 µg/mL | 32 µg/mL | 16 µg/mL | > 204 µM | > 204 µM | 13.5 µM | koff relative to that of durlobactam [2]: > 1,000 fold; MIC ([3]; checkerboard colistin x enmetazobactam, isolate Ab4 (OXA-23)): 64 µg/mL; MIC ([3]; checkerboard colistin x enmetazobactam, isolate Ab138 (OXA-58)): 32 µg/mL; MIC ([3]; checkerboard colistin x enmetazobactam, isolate Ab180 (OXA-24/40)): 16 µg/mL; IC50 ([6]; membrane preparations, A. baumannii ATCC 19606, read-out: IC50 (binding affinity) PBP2 (converted)): 11.5 µM; IC50 ([7]; A. baumannii ATCC 19606, listed as Enmetazobactam, read-out: IC50 (binding affinity) PBP3 (converted)): 13.4 µM
2 | CC1(C)[C@H](C(=O)O)N2C(=O)C[C@H]2S1(=O)=O [sulbactam] | 1 µg/mL (≈ 4.29 µM) | 0.5 µg/mL (≈ 2.14 µM) | 1 µg/mL (≈ 4.29 µM) | 16 µg/mL (≈ 68.6 µM) | 16 µg/mL (≈ 68.6 µM) | 4 µg/mL (≈ 17.1 µM) | 2 µg/mL (≈ 8.57 µM) | 0.5 µg/mL (≈ 2.14 µM) | 0.5 µg/mL (≈ 2.14 µM) | the same or up to twofold higher | 16 µg/mL | 8 µg/mL | 2 µg/mL | 9.6 µM | > 274 µM | 9.73 µM | IC50 ([6]; IC50 (binding affinity) PBP2, membrane preparations, A. baumannii ATCC 19606): > 274 µM
